Data: ChEMBL document CHEMBL1130322, “Anticancer and antiviral effects and inactivation of S-adenosyl-L-homocysteine hydrolase with 5'-carboxaldehydes and oximes synthesized from adenosine and sugar-modified analogues” (J Med Chem, 1997)
Converted amounts (≈) assume the structure as drawn.

Assays:
[1] = tested on: E6SM; test: Minimum inhibitory concentration required to effect a microscopically visible change of cell morphology in human embryonic skin-muscle (E6SM) cell culture.; type: functional; parameters: unit not given here
[2] = tested on: Vaccinia virus
[3] = tested on: Vero; test: cells; settings: Chlorocebus sabaeus
[4] = tested on: Vero; test: cells; settings: Chlorocebus sabaeus; remark: listed apart in the source
[5] = tested on: Vero; test: cells; settings: Chlorocebus sabaeus; remark: listed apart in the source
[6] = tested on: Vero; test: cells; settings: Chlorocebus sabaeus; remark: listed apart in the source
[7] = tested on: Vero; test: cells; settings: Chlorocebus sabaeus; remark: listed apart in the source
[8] = tested on: Human alphaherpesvirus 1; test: microbe, parasite or virus in culture
[9] = tested on: Human alphaherpesvirus 1; test: microbe, parasite or virus in culture; remark: listed apart in the source
[10] = tested on: Human alphaherpesvirus 2; test: microbe, parasite or virus in culture
[11] = tested on: Human alphaherpesvirus 1; test: microbe, parasite or virus in culture; remark: listed apart in the source
[12] = tested on: HEL; test: (§1) 50% Cytostatic concentration required to inhibit human erythroleukemic (HEL) cell proliferation; type: functional; parameters: unit not given here
[13] = tested on: CCRF-CEM; test: cells; settings: Homo sapiens
[14] = tested on: FM3A; test: cells; settings: Mus musculus
[15] = tested on: L1210; test: cells; settings: Mus musculus
[16] = tested on: MOLT-4; test: cells; settings: Homo sapiens
[17] = tested on: Human betaherpesvirus 5; test: microbe, parasite or virus in culture
[18] = tested on: Human betaherpesvirus 5; test: microbe, parasite or virus in culture; remark: listed apart in the source
[19] = tested on: HEL; test: as §1; type: functional
[20] = tested on: HeLa; test: Minimum inhibitory concentration required to effect a microscopically visible change of cell morphology in HeLa cell culture.; type: functional, Homo sapiens; parameters: unit not given here
[21] = tested on: MDCK; type: functional, Canis lupus familiaris; parameters: unit not given here
[22] = tested on: Vero; test: Minimum inhibitory concentration required to effect a microscopically visible change of cell morphology in Vero cell culture.; type: functional, Chlorocebus sabaeus; parameters: unit not given here
[23] = target: T1, Adenosylhomocysteinase (Homo sapiens, UniProt P23526)
Target sequence in this assay (P23526 whole entry): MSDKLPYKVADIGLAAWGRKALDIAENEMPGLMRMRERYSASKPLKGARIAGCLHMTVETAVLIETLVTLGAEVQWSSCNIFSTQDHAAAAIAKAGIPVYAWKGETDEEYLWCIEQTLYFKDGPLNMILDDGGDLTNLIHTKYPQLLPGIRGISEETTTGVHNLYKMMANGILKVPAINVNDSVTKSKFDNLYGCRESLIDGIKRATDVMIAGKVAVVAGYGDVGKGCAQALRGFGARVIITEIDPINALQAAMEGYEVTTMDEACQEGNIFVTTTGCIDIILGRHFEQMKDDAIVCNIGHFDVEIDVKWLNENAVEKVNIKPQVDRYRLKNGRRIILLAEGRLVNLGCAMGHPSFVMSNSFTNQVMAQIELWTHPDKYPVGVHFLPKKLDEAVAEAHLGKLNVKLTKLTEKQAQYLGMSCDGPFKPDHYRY

[24] = target: T1, Adenosylhomocysteinase; remark: listed apart in the source
Target sequence in this assay (P23526 2-432 limits assumed): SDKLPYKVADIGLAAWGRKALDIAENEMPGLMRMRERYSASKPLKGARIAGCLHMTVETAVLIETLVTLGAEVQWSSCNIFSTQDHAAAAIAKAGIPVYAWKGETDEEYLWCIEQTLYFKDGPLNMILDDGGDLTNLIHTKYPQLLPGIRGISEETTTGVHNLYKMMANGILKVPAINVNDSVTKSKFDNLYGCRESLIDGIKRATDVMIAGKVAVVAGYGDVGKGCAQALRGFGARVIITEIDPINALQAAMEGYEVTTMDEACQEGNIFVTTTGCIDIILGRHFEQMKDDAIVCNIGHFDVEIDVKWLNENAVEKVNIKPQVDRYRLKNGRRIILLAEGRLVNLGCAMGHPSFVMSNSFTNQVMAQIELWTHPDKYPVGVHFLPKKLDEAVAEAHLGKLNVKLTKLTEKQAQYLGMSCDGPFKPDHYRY

[25] = tested on: HeLa; test: cells; settings: Homo sapiens
[26] = tested on: HeLa; test: cells; settings: Homo sapiens; remark: listed apart in the source
[27] = tested on: MDCK; test: cells; settings: Canis lupus familiaris
[28] = tested on: MDCK; test: cells; settings: Canis lupus familiaris; remark: listed apart in the source
[29] = tested on: Vero; test: cells; settings: Chlorocebus sabaeus; remark: listed apart in the source
[30] = tested on: Respiratory syncytial virus; test: microbe, parasite or virus in culture; settings: human respiratory syncytial virus, HeLa
[31] = tested on: Human alphaherpesvirus 1; test: microbe, parasite or virus in culture; remark: listed apart in the source
[32] = tested on: Human alphaherpesvirus 1; test: microbe, parasite or virus in culture; remark: listed apart in the source
[33] = tested on: Human alphaherpesvirus 1; test: microbe, parasite or virus in culture; remark: listed apart in the source

Structure (SMILES)	MIC [1]	EC50 [2]	EC50 [3]	EC50 [4]	EC50 [5]	EC50 [6]	EC50 [7]	EC50 [8]	EC50 [9]	EC50 [10]	EC50 [11]	CC50 [12]	IC50 [13]	IC50 [14]	IC50 [15]	IC50 [16]	EC50 [17]	EC50 [18]	Ki [23]	k2 [24]	further results
Nc1ncnc2c1ncn2C[C@H](O)CO [(S)-DHPA]	>400	20 µg/mL (≈ 95.6 µM)	> 400 µg/mL	70 µg/mL (≈ 335 µM)	70 µg/mL (≈ 335 µM)	> 400 µg/mL	20 µg/mL (≈ 95.6 µM)	> 40 µg/mL	> 400 µg/mL	> 400 µg/mL	> 400 µg/mL	–	–	–	–	–	–	–	–	–	–
Nc1ncnc2c1ncn2[C@@H]1O[C@H](C=O)[C@@H](O)[C@H]1O	>400	70 µg/mL (≈ 264 µM)	> 200 µg/mL	> 200 µg/mL	> 200 µg/mL	> 200 µg/mL	300 µg/mL (≈ 1130 µM)	> 400 µg/mL	> 400 µg/mL	> 400 µg/mL	> 400 µg/mL	>50	7.3 µg/mL (≈ 27.5 µM)	15 µg/mL (≈ 56.6 µM)	9.71 µg/mL (≈ 36.6 µM)	41.5 µg/mL (≈ 156 µM)	> 40 µg/mL	> 40 µg/mL	–	–	–
CCO/N=C/[C@H]1OC(n2cnc3c(N)ncnc32)[C@H](O)[C@@H]1O (some centres not stated)	>200	100 µg/mL (≈ 324 µM)	> 100 µg/mL	> 100 µg/mL	> 100 µg/mL	> 100 µg/mL	> 200 µg/mL	> 200 µg/mL	> 200 µg/mL	> 200 µg/mL	> 200 µg/mL	–	> 500 µg/mL	> 500 µg/mL	295 µg/mL (≈ 957 µM)	> 500 µg/mL	> 4 µg/mL	> 10 µg/mL	111 nM	0.037 min⁻¹	CC50 [19]: >50; MIC [20]: >200; MIC [21]: 4; MIC [22]: >200; EC50 [25]: > 200 µg/mL; EC50 [26]: > 200 µg/mL; EC50 [27]: 0.8 µg/mL (≈ 2.59 µM); EC50 [28]: 1.2 µg/mL (≈ 3.89 µM); EC50 [29]: > 100 µg/mL; EC50 [30]: > 200 µg/mL
Nc1ncnc2c1ncn2[C@@H]1O[C@@H](C=NO)[C@@H](O)[C@H]1O	–	–	–	–	–	–	–	–	–	–	–	–	–	–	–	–	–	–	224 nM	0.13 min⁻¹	–
Nc1ncnc2c1ncn2[C@@H]1O[C@@H](C=O)[C@@H](O)[C@H]1O	–	–	–	–	–	–	–	–	–	–	–	–	–	–	–	–	–	–	43 nM	0.22 min⁻¹	–
Nc1ncnc2c1ncn2C1CC(O)C(/C=N/O)O1 (configuration not stated)	200	> 100 µg/mL	> 100 µg/mL	> 100 µg/mL	> 100 µg/mL	> 100 µg/mL	> 100 µg/mL	> 100 µg/mL	> 100 µg/mL	> 100 µg/mL	> 100 µg/mL	14	13.8 µg/mL (≈ 52.2 µM)	11.2 µg/mL (≈ 42.4 µM)	4.6 µg/mL (≈ 17.4 µM)	17 µg/mL (≈ 64.3 µM)	1 µg/mL (≈ 3.78 µM)	0.6 µg/mL (≈ 2.27 µM)	–	–	–
O=c1[nH]c(=O)n([C@H]2C[C@H](O)[C@@H](CO)O2)cc1/C=C/Br [BRIVUDINE]	>400	0.7 µg/mL (≈ 2.1 µM)	> 400 µg/mL	> 400 µg/mL	> 400 µg/mL	> 400 µg/mL	> 400 µg/mL	–	–	–	0.04 µg/mL (≈ 0.12 µM)	>40	–	–	–	–	> 40 µg/mL	> 40 µg/mL	–	–	EC50 [31]: 10 µg/mL (≈ 30 µM); EC50 [32]: > 400 µg/mL; EC50 [33]: > 400 µg/mL
Nc1ncnc2c1ncn2C1O[C@H](/C=N/OCc2ccccc2)[C@@H](O)[C@H]1O (some centres not stated)	100	2 µg/mL (≈ 5.4 µM)	> 100 µg/mL	> 100 µg/mL	> 100 µg/mL	> 100 µg/mL	> 40 µg/mL	> 40 µg/mL	> 40 µg/mL	> 40 µg/mL	> 40 µg/mL	33	136 µg/mL (≈ 367 µM)	340 µg/mL (≈ 918 µM)	187 µg/mL (≈ 505 µM)	118 µg/mL (≈ 319 µM)	> 10 µg/mL	> 10 µg/mL	101 nM	0.036 min⁻¹	MIC [20]: >200; MIC [21]: 100; MIC [22]: >200; EC50 [25]: > 200 µg/mL; EC50 [26]: > 200 µg/mL; EC50 [27]: 20 µg/mL (≈ 54 µM); EC50 [28]: 20 µg/mL (≈ 54 µM); EC50 [29]: > 100 µg/mL; EC50 [30]: > 200 µg/mL
Nc1ncnc2c1ncn2C1OC(/C=N/O)CC1O (configuration not stated)	>400	300 µg/mL (≈ 1140 µM)	> 400 µg/mL	> 400 µg/mL	300 µg/mL (≈ 1140 µM)	> 400 µg/mL	> 400 µg/mL	> 400 µg/mL	> 400 µg/mL	> 400 µg/mL	> 400 µg/mL	>50	185 µg/mL (≈ 700 µM)	> 200 µg/mL	180 µg/mL (≈ 681 µM)	> 200 µg/mL	40 µg/mL (≈ 151 µM)	10 µg/mL (≈ 37.8 µM)	–	–	–
Nc1ncnc2c1ncn2[C@@H]1O[C@H](C=NO)[C@@H](O)[C@@H]1O	>200	20 µg/mL (≈ 71.4 µM)	> 40 µg/mL	> 40 µg/mL	> 40 µg/mL	> 40 µg/mL	> 100 µg/mL	70 µg/mL (≈ 250 µM)	> 100 µg/mL	> 100 µg/mL	70 µg/mL (≈ 250 µM)	–	15 µg/mL (≈ 53.5 µM)	12.7 µg/mL (≈ 45.3 µM)	10.5 µg/mL (≈ 37.5 µM)	16.4 µg/mL (≈ 58.5 µM)	> 10 µg/mL	> 10 µg/mL	–	–	CC50 [19]: 34
Nc1ncnc2c1ncn2C1CC(O)C(C=O)O1 (configuration not stated)	>400	> 400 µg/mL	> 200 µg/mL	70 µg/mL (≈ 281 µM)	> 200 µg/mL	> 200 µg/mL	> 400 µg/mL	> 400 µg/mL	> 400 µg/mL	> 400 µg/mL	> 400 µg/mL	>50	17.8 µg/mL (≈ 71.4 µM)	50.9 µg/mL (≈ 204 µM)	6.64 µg/mL (≈ 26.6 µM)	4.96 µg/mL (≈ 19.9 µM)	> 40 µg/mL	> 40 µg/mL	–	–	–
Nc1ncnc2c1ncn2C1OC(C=O)CC1O (configuration not stated)	>400	> 400 µg/mL	> 200 µg/mL	> 400 µg/mL	> 200 µg/mL	> 200 µg/mL	> 400 µg/mL	> 400 µg/mL	> 100 µg/mL	> 400 µg/mL	> 400 µg/mL	>50	> 200 µg/mL	> 200 µg/mL	> 200 µg/mL	> 200 µg/mL	> 40 µg/mL	> 40 µg/mL	–	–	–
Nc1ccnc2c1ncn2[C@@H]1O[C@H](CO)[C@@H](O)[C@H]1O	>400	0.7 µg/mL (≈ 2.63 µM)	> 400 µg/mL	0.2 µg/mL (≈ 0.751 µM)	4 µg/mL (≈ 15 µM)	4 µg/mL (≈ 15 µM)	0.7 µg/mL (≈ 2.63 µM)	40 µg/mL (≈ 150 µM)	> 400 µg/mL	> 400 µg/mL	> 400 µg/mL	–	–	–	–	–	–	–	–	–	–
Nc1ncnc2c1ncn2C1O[C@H](C(O)O)[C@@H](O)[C@@H]1O (some centres not stated)	>400	20 µg/mL (≈ 70.6 µM)	> 200 µg/mL	150 µg/mL (≈ 530 µM)	300 µg/mL (≈ 1060 µM)	> 200 µg/mL	> 400 µg/mL	–	–	> 400 µg/mL	300 µg/mL (≈ 1060 µM)	>50	118 µg/mL (≈ 417 µM)	125 µg/mL (≈ 441 µM)	156 µg/mL (≈ 551 µM)	> 200 µg/mL	> 40 µg/mL	> 40 µg/mL	–	–	EC50 [31]: > 400 µg/mL; EC50 [33]: > 400 µg/mL
Nc1ncnc2c1ncn2[C@@H]1O[C@H](C=NO)[C@@H](O)[C@H]1O	7	> 4 µg/mL	> 0.4 µg/mL	> 1 µg/mL	> 1 µg/mL	> 0.4 µg/mL	> 1 µg/mL	> 4 µg/mL	> 4 µg/mL	> 4 µg/mL	> 4 µg/mL	–	2.9 µg/mL (≈ 10.3 µM)	2.3 µg/mL (≈ 8.21 µM)	1.8 µg/mL (≈ 6.42 µM)	5.4 µg/mL (≈ 19.3 µM)	0.3 µg/mL (≈ 1.07 µM)	0.25 µg/mL (≈ 0.892 µM)	670 nM	0.16 min⁻¹	CC50 [19]: 0.7; MIC [20]: >4; MIC [21]: 0.8; MIC [22]: >1; EC50 [25]: > 40 µg/mL; EC50 [26]: > 4 µg/mL; EC50 [27]: 0.8 µg/mL (≈ 2.85 µM); EC50 [28]: > 0.8 µg/mL; EC50 [29]: > 0.4 µg/mL; EC50 [30]: < 4 µg/mL
CO/N=C/[C@H]1OC(n2cnc3c(N)ncnc32)[C@H](O)[C@@H]1O (some centres not stated)	400	100 µg/mL (≈ 340 µM)	> 100 µg/mL	> 100 µg/mL	> 100 µg/mL	> 100 µg/mL	150 µg/mL (≈ 510 µM)	–	–	> 200 µg/mL	> 200 µg/mL	>50	330 µg/mL (≈ 1120 µM)	19 µg/mL (≈ 64.6 µM)	271 µg/mL (≈ 921 µM)	218 µg/mL (≈ 741 µM)	> 10 µg/mL	> 10 µg/mL	94.6 nM	0.048 min⁻¹	MIC [20]: >200; MIC [21]: 20; MIC [22]: >200; EC50 [25]: > 200 µg/mL; EC50 [26]: > 200 µg/mL; EC50 [27]: 0.8 µg/mL (≈ 2.72 µM); EC50 [28]: 4 µg/mL (≈ 13.6 µM); EC50 [29]: > 100 µg/mL; EC50 [31]: > 200 µg/mL; EC50 [30]: > 200 µg/mL; EC50 [33]: > 200 µg/mL
